Values quoted from earlier work, collected in patent publication US20190046552A1, “COMPOSITIONS AND METHODS FOR THE TREATMENT OF HCV INFECTION” (priority 2015, published 2019).

Tested on: panel of cell lines
Conditions: read-out: 50% cytotoxic concentration (CC50), Coughlin et al. 2010; cited from earlier work

In the case of `CO[C@H]1C(OP(=O)(OC[C@H]2O[C@@H](n3cnc4c(N)ncnc43)CC2O)SCOC(=O)OC(C)C)[C@@H](CO)O[C@H]1n1ccc(=O)[nH]c1=O` (stereo partly shown) [Formula (II)], the CC50 is given as greater than 1000 µM.
